Data as given in patent US20060069132A1, “Azolecarboxamide herbicides” (priority 2004, published 2006).

Columns and labels:
morningglory = assay: Test B pre-/postemergence herbicide test; assay type: in vivo, Ipomoea coccinea; settings: for Plant response rating (0 to 100 scale), Morningglory: 0 is no effect, 100 is complete control, preemergence
Procedure, shortened: (§1)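 Evaluation is visual, comparing treated with control plants on a scale where 0 means no effect and 100 means full control. Treatments were preemergence, or postemergence on seedlings 2–18 cm tall, and held 13–15 days in the greenhouse.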

Surinam grass = assay: Test B pre-/postemergence herbicide test; assay type: in vivo, Urochloa decumbens; settings: for Plant response rating (0 to 100 scale), Surinam Grass: 0 is no effect, 100 is complete control, preemergence
Procedure, shortened: (§2)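 Response was scored visually 13 to 15 days after treatment against untreated greenhouse controls, 0 meaning no effect and 100 complete control. Formulations (solvent mixture plus surfactant) went onto soil after planting, onto foliage of 1- to 4-leaf plants, and onto 2-leaf plants in a flooded paddy set including rice and barnyardgrass.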

cocklebur = assay: Test B pre-/postemergence herbicide test; assay type: in vivo, Xanthium strumarium; settings: for Plant response rating (0 to 100 scale), Cocklebur: 0 is no effect, preemergence
Procedure, shortened: as §1

ducksalad = assay: Test B flooded paddy test; assay type: in vivo, Heteranthera limosa; settings: 1000 g ai/ha, scale 0 to 100 (0 no effect, 100 complete control)
Procedure, shortened: (§3)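 Each value is a visual 0–100 response rating taken against controls 13 to 15 days after treatment in the greenhouse. Plants received formulated chemical postemergence at the 1- to 4-leaf stage or, in flooded paddy, at the 2-leaf stage.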

barnyardgrass [1] = assay: Test B flooded paddy test; assay type: in vivo, Echinochloa crus-galli; settings: 1000 g ai/ha, scale 0 to 100 (0 no effect, 100 complete control)
Procedure, shortened: as §3

corn = assay: Test B pre-/postemergence herbicide test; assay type: in vivo, Zea mays; settings: for Plant response rating (0 to 100 scale), Corn: 0 is no effect, preemergence
Procedure, shortened: as §2

blackgrass = assay: Test B postemergence herbicide test; assay type: in vivo, Alopecurus myosuroides
Procedure, shortened: as §3

large crabgrass = assay: Test B pre-/postemergence herbicide test; assay type: in vivo, Digitaria sanguinalis; settings: for Plant response rating (0 to 100 scale), Crabgrass, Large: 0 is no effect, preemergence
Procedure, shortened: as §2

[2] = test system: small flower umbrella sedge; assay: Test B flooded paddy test; assay type: in vivo, Cyperus difformis; settings: 1000 g ai/ha, scale 0 to 100 (0 no effect, 100 complete control)
Procedure, shortened: as §3

barnyardgrass [3] = assay: Test B pre-/postemergence herbicide test; assay type: in vivo, Echinochloa crus-galli; settings: for Plant response rating (0 to 100 scale), Barnyardgrass: 0 is no effect, preemergence
Procedure, shortened: as §1

wild oat = assay: Test B postemergence herbicide test; assay type: in vivo, Avena fatua
Procedure, shortened: (§4)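 Read-out: visual comparison with controls, scored 0 to 100, where 100 means complete control and 0 no effect. Formulated chemicals were applied postemergence to plants 2–18 cm tall (1- to 4-leaf), or to flooded-paddy plants at the 2-leaf stage, then held 13 to 15 days under glass.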

wheat = assay: Test B postemergence herbicide test; assay type: in vivo, Triticum aestivum; set-up: key to Wheat plant response rating: 0 = no effect, 100 = complete control
Procedure, shortened: as §4

pigweed = assay: Test B pre-/postemergence herbicide test; assay type: in vivo, Amaranthus retroflexus; settings: for Plant response rating (0 to 100 scale), Pigweed: 0 is no effect, 100 is complete control, preemergence
Procedure, shortened: as §2

lambsquarters = assay: Test B pre-/postemergence herbicide test; assay type: in vivo, Chenopodium album; settings: for Plant response rating (0 to 100 scale), Lambsquarters: 0 is no effect, 100 is complete control, preemergence
Procedure, shortened: as §2

velvetleaf = assay: Test B pre-/postemergence herbicide test; assay type: in vivo, Abutilon theophrasti; settings: for Plant response rating (0 to 100 scale), Velvetleaf: 0 is no effect, 100 is complete control, preemergence
Procedure, shortened: as §2

rice = assay: Test B flooded paddy test; assay type: in vivo, Oryza sativa; settings: 1000 g ai/ha, scale 0 to 100 (0 no effect, 100 complete control)
Procedure, shortened: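 Postemergence plants were sprayed with formulated test chemicals at 2 to 18 cm height (1- to 4-leaf stage); paddy species were grown to the 2-leaf stage. After 13 to 15 days in a greenhouse, injury was rated visually against untreated controls on a 0–100 scale (0 = no effect, 100 = complete control).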

[4] = Postemergence, 500 g ai/ha, scale 0 (no effect) to 100 (complete control)
[5] = postemergence, 125 g ai/ha, scale 0 to 100
[6] = 125 g ai/ha, 100 is complete control
[7] = 500 g ai/ha, scale 0 to 100, 0 no effect, 100 complete control, preemergence
[8] = 125 g ai/ha, visual rating, scale 0 (no effect) to 100 (complete control), postemergence
[9] = postemergence, 500 g ai/ha, scale 0 to 100, 0 is no effect, 100 is complete control

Structure (SMILES) | Plant response rating (0 to 100 scale), Morningglory (morningglory; 125 g ai/ha) | Morningglory plant response rating (morningglory; [4]) | Plant response rating (0 to 100 scale), Surinam Grass (Surinam grass; 125 g ai/ha) | Surinam Grass plant response rating (Surinam grass; [4]) | Plant response rating (0 to 100 scale), Cocklebur (cocklebur; [6]) | Ducksalad plant response rating (ducksalad) | Barnyardgrass plant response rating (barnyardgrass [1]) | Plant response rating (0 to 100 scale), Corn (corn; [6]) | Plant response rating (0 to 100 scale), Crabgrass, Large (large crabgrass; [6]) | Sedge, Umbrella plant response rating [2] | Plant response rating (0 to 100 scale), Barnyardgrass (barnyardgrass [3]; [6]) | Oat, Wild plant response rating (wild oat; [4]) | Wheat plant response rating (wheat; [7]) | Wheat plant response rating (wheat; [4]) | Plant response rating (0 to 100 scale), Pigweed (pigweed; 125 g ai/ha) | Pigweed plant response rating (pigweed; [4]) | Plant response rating (0 to 100 scale), Lambsquarters (lambsquarters; 125 g ai/ha) | Lambsquarters plant response rating (lambsquarters; [4]) | Plant response rating (0 to 100 scale), Velvetleaf (velvetleaf; 125 g ai/ha) | Velvetleaf plant response rating (velvetleaf; [4]) | also measured
C=CCNC(=O)c1cccc(NC(=O)c2nn(C(C)(C)C)nc2CC)c1 [Compound 414] | 10 | 70 | 90 | 60 | 20 | 90 | 80 | 70 | 100 | 90 | 90 | 40 | 100 | 20 | 100 | 100 | 100 | 100 | 70 | 70 | Morningglory plant response rating (morningglory; [5]): 20; Surinam Grass plant response rating (Surinam grass; [5]): 20; Cocklebur plant response rating (cocklebur; [4]): 70; Cocklebur plant response rating (cocklebur; [5]): 60; Corn plant response rating (corn; [4]): 40; Corn plant response rating (corn; [5]): 30; Blackgrass plant response rating (blackgrass; [4]): 50; Blackgrass plant response rating (blackgrass; [5]): 40; Crabgrass, Large plant response rating (large crabgrass; [4]): 70; Crabgrass, Large plant response rating (large crabgrass; [5]): 30; Barnyardgrass plant response rating (barnyardgrass [3]; Postemergence, 125 g ai/ha, scale 0 (no effect) to 100 (complete control)): 30; Barnyardgrass plant response rating (barnyardgrass [3]; [4]): 30; Oat, Wild plant response rating (wild oat; [5]): 30; Wheat plant response rating (wheat; [5]): 10; Pigweed plant response rating (pigweed; [5]): 90; Lambsquarters plant response rating (lambsquarters; [5]): 80; Velvetleaf plant response rating (velvetleaf; [5]): 50; Rice plant response rating (rice): 80
CCc1nn(C(C)(C)C)nc1C(=O)Nc1cccc(C(=O)N(C)CC)c1 [Compound 384] | 10 | 40 | 100 | 60 | 0 | 80 | 90 | 80 | 90 | 80 | 90 | 30 | 100 | 20 | 90 | 70 | 100 | 80 | 70 | 70 | Morningglory plant response rating (morningglory; [8]): 30; Surinam Grass plant response rating (Surinam grass; [8]): 10; Cocklebur plant response rating (cocklebur; [8]): 30; Cocklebur plant response rating (cocklebur; [9]): 40; Corn plant response rating (corn; [8]): 0; Corn plant response rating (corn; [9]): 10; Blackgrass plant response rating (blackgrass; [8]): 20; Blackgrass plant response rating (blackgrass; [9]): 50; Crabgrass, Large plant response rating (large crabgrass; [8]): 10; Crabgrass, Large plant response rating (large crabgrass; [9]): 40; Barnyardgrass plant response rating (barnyardgrass [3]; [8]): 0; Barnyardgrass plant response rating (barnyardgrass [3]; [9]): 30; Oat, Wild plant response rating (wild oat; [8]): 10; Wheat plant response rating (wheat; [8]): 10; Pigweed plant response rating (pigweed; [8]): 30; Lambsquarters plant response rating (lambsquarters; [8]): 70; Velvetleaf plant response rating (velvetleaf; [8]): 30; Rice plant response rating (rice): 90
